These results are taken from article PMC11638965, “Leveraging Dual-Ligase Recruitment to Enhance Protein Degradation via a Heterotrivalent Proteolysis Targeting Chimera” (Journal of the American Chemical Society, 2024).

Structures are written as SMILES. Where two headings read alike, the source gives them in different places.

The test system of one assay is RKO WT cells. As to the kind of experiment: cells. The assay is classed as cell-based, human. The method, then:
(§1) RKO WT, VHL KO, CRBN KO and CRBN/VHL dKO cells were cultured in Dulbecco’s modified Eagle’s medium supplemented with 10% FCS and 1% penicillin–streptomycin. RKO CRBN KO and VHL KO were generated previously.[45] RKO CRBN/VHL dKO cells were generated by transiently expressing pSpCas9(BB)-2A-GFP (PX458) (Addgene 48138) loaded with a short guide RNA (sgRNA) targeting VHL (Fwd: […], Rev: […]) in RKO CRBN KO cells. Clones were single cell seeded and checked for VHL and CRBN double deletion via Western blot or PCR on genomic DNA (gDNA).
Cells were seeded in 96-well plates at a cell density of 3750 cells per well and treated for 3 days with DMSO or drug at ten √10 serial diluted concentrations. […] Cell viability was assessed using the CellTiter-Glo assay (CellTiter-Glo Luminescent Cell Viability Assay, Promega G7573) according to manufacturer instructions. Luminescence signal was measured on a Multilabel Plate Reader Platform Victor X3 model 2030 (PerkinElmer). Survival curves and EC50 values were determined using GraphPad Prism v.10.0.3 by fitting a nonlinear regression to the log10-transformed drug concentration and the relative viability after normalization of each data point to the mean luminescence of the lowest drug concentration.

The target of a further assay is T1, BRD2 (Homo sapiens, UniProt P25440).
T1 construct: HiBiT, is appended to the N-terminus of endogenous BRD2, BRD3, and BRD4; endogenous in cells
Put plainly: Live cell kinetic HiBiT degradation assay, HiBiT-BRD2 HEK293 cells. The assay is classed as cell-based. As to conditions: HiBiT-BRD2 CRISPR knock-in HEK293 cells, live cell kinetic degradation, 24 h; read-out: Dmax 50 BRD2. As to the method: (§2) HEK293 HiBiT-BRD2 (LgBiT stable), HEK293 HiBiT-BRD3 (LgBiT stable), and HEK293 HiBiT-BRD4 (LgBiT stable) were created using CRISPR/Cas9 to insert at HiBiT tag at the N-terminal genomic loci of BRD2, BRD3, or BRD4 in a cell line stably expressing LgBiT protein as described previously.[23]
(§3) For kinetic degradation experiments, HEK293 HiBiT-BRD2, 3, or 4 (LgBiT stable) cells and HEK293 HiBiT-BRD4 (LgBiT) CRBN KO and VHL KO cells were plated at 20,000 cells/well in DMEM +10% FBS in white 96-well tissue culture plates and allowed to adhere overnight. The next day, media was removed and 90 μL of prewarmed CO2-independent medium (Gibco) containing Endurazine (Promega) at a 1:100 dilution from stock was added. Plates were incubated at 37 °C for 3 h to allow luminescence to equilibrate. A threefold dilution series of each PROTAC at 10x the desired final concentration was prepared (with the amount of DMSO in each treatment condition kept constant). After luminescence equilibration, a preread luminescence measurement was taken (prior to compound addition) to allow for baseline normalization to account for possible plating differences. Cells were then treated with 10 μL of the prepared PROTAC dilution series (in triplicate or quadruplicate). Treated plates were placed in a GloMax Discover luminometer (Promega) prewarmed to 37 °C and luminescence measurements were obtained every 7 min for 24 h. Kinetic degradation plots were obtained by first normalizing time course luminescence readings in each well to the preread measurement, then to the average value of the DMSO only control at each time point. Data was analyzed using GraphPad Prism (version 8) and excel. Dmax values were identified as the lowest luminescence reading in each well. Rate constant values were calculated using a one phase exponential decay Y = (Y0-Plateau) e(K*^X) + Plateau using Prism (Y0 constrained to 1). Dmax 50 values were calculated by plotting Dmax as a function of concentration, then fitting plots using the following equation: [drawing 1] to determine IC50.
For orientation: HiBiT is a short tag that completes a luciferase, so light tracks the accessible tagged protein.

The target of another assay is BRD4 (Homo sapiens, UniProt O60885). Put plainly: Live cell kinetic HiBiT degradation assay, HiBiT-BRD4 HEK293 cells (parental, CRBN KO, VHL KO). The following applies: for fold drop in BRD4 degradation potency (Dmax 50) when CRBN recruitment was outcompeted by pomalidomide: 20 μM pomalidomide vs vehicle, HiBiT-BRD4 HEK293 cells; for EC50: HiBiT-BRD4 CRISPR knock-in HEK293 cells, live cell kinetic degradation, 24 h, read-out: Dmax 50 BRD4. In kind it is cell-based. The method, then:
as §2, §3
HiBiT-BRD4 (LgBiT stable) HEK293 cells (Promega) were used to generate both VHL KO HiBiT-BRD4 (LgBiT stable) and CRBN KO HiBiT-BRD4 (LgBiT stable) cell lines. For VHL, gRNAs targeting exon 1 ([…]) and exon 2 ([…]) and for CRBN, gRNAs targeting exon 3 ([…]) and exon 6 ([…]) were purchased from IDT DNA (Table 5). For each gRNA, tracrRNA/crRNA duplexes were formed by combining 10 μL of 100 μM Alt-R […] (IDT), 100 μM Alt-R crRNA (IDT) and heating at 95C for 5 min, then were allowed to cool to room temp for 20 min. RNPs were then formed by combining 75 pmol Cas9 (IDT) with 2.4 μL total of prepared tracrRNA/crRNA complex (1.2 μL for each gRNA targeting each exon). Cells were then trypsinized and resuspended at 10,000,000 cells/mL in 1 mL of Mirus Ingenio electroporation solution. Three μL of 100 μM electroporation enhancer (Mirus) was added, along with 3 μL of RNP solution. Cells were electroporated in 2 mm cuvettes using a BioRad system (190 V, 950 μF, infinite resistance) and were then plated in a T75 flask in full growth medium to allow for recovery. After recovery from electroporation, knockout pools were sorted for single cells in 96-well tissue culture treated plates. Clonal populations which expanded from single cells were then screened for loss of function of VHL by treating with MZ1, or loss of function of CRBN by treating with dBET6, using a HiBiT-BRD4 luminescent readout assay. Genomic DNA isolated from candidate clones was then PCR-amplified (Table of primers below), Gibson-assembled into a pF1A plasmid backbone, transformed into E. coli., and then Sanger sequenced to confirm presence of indels in the targeted exons. […] VHL exon 3 carried a 19 bp deletion on one allele, and a 1 bp insertion on the other allele, both occurring after the premature stop codon in exon 1.

Another assay relates to RKO CRBN/VHL dKO cells. As to the kind of experiment: Cell viability assay (CellTiter-Glo). In kind it is cell-based, human. As to conditions: read-out: EC50 RKO CRBN/VHL dKO. As to the method:
as §1
(§4) Cells were seeded in 96-well plates at a cell density of 3750 cells per well and treated for 3 days with DMSO or drug at ten √10 serial diluted concentrations. Starting concentration for all drugs was 10 μM, and each treatment was performed in biological triplicates. Cell viability was assessed using the CellTiter-Glo assay (CellTiter-Glo Luminescent Cell Viability Assay, Promega G7573) according to manufacturer instructions. Luminescence signal was measured on a Multilabel Plate Reader Platform Victor X3 model 2030 (PerkinElmer). Survival curves and EC50 values were determined using GraphPad Prism v.10.0.3 by fitting a nonlinear regression to the log10-transformed drug concentration and the relative viability after normalization of each data point to the mean luminescence of the lowest drug concentration.
Background: Cellular ATP, detected with luciferase, serves as a proxy for viable cell number.

The next assay deals with RKO VHL KO cells. As to the kind of experiment: Cell viability assay (CellTiter-Glo). In kind it is cell-based, human. The method, then: as §1, §4
Another assay concerns RKO CRBN KO cells. Put plainly: Cell viability assay (CellTiter-Glo). In kind it is cell-based, human. The method, then: as §1, §4
The target in another assay is T2, BRD3 (Homo sapiens, UniProt Q15059).
T2 construct: HiBiT, is appended to the N-terminus of endogenous BRD2, BRD3, and BRD4; endogenous in cells
Put plainly: Live cell kinetic HiBiT degradation assay, HiBiT-BRD3 HEK293 cells. The assay is classed as cell-based. As to conditions: HiBiT-BRD3 CRISPR knock-in HEK293 cells, live cell kinetic degradation, 24 h; read-out: Dmax 50 BRD3. As to the method: as §2, §3

The next assay concerns K562 cells. Put plainly: Cell viability assay (CellTiter-Glo). The following applies: WT K562, 5.12 pM to 10 uM, n = 3 (Table S4). The assay is classed as cell-based, human. The method, then: as §4, with “[…],” for “3750 cells per well and treated for 3 days with DMSO or drug at ten √10 serial diluted concentrations. Starting concentration for all drugs was 10 μM,”
For another assay, the system named is KBM7 cells. Put plainly: Cell viability assay (CellTiter-Glo). The assay is classed as cell-based, human. As to conditions: WT KBM7, 5.12 pM to 10 uM, n = 3 (Table S4). The method, then: as §4, with “[…],” for “3750 cells per well and treated for 3 days with DMSO or drug at ten √10 serial diluted concentrations. Starting concentration for all drugs was 10 μM,”

Setting [1] is: Homo sapiens, 72 h, 316 pM to 10 μM, 3 days, n = 6 (Figure 3C, Table S1), read-out: EC50 RKO WT.
[2] abbreviates: Homo sapiens, 72 h, 316 pM to 10 μM, 3 days, n = 6 (Figure 3C, Table S1).

T1 sequence (P25440 whole entry): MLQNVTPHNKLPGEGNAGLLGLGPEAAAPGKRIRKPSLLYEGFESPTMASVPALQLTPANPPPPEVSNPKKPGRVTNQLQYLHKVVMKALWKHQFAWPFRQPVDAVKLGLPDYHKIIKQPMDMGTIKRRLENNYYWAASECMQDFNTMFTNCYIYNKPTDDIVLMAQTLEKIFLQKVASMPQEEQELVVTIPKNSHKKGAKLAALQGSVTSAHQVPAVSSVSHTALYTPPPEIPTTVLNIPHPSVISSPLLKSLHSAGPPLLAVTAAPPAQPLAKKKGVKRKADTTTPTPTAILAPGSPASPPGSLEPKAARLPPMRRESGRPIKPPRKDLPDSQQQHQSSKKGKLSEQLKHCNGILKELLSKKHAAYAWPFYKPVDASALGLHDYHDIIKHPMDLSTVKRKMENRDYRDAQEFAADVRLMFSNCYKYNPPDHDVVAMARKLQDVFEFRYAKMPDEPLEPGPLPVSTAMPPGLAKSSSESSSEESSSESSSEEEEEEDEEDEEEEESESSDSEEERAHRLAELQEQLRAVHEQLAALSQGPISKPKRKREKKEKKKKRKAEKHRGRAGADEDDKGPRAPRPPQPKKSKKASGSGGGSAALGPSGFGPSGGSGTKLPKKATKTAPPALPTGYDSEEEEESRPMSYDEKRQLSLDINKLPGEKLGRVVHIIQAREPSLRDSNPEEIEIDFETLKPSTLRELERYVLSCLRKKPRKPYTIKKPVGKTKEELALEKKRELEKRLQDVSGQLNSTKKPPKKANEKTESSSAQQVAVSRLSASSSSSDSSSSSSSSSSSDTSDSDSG
T2 sequence (Q15059 whole entry): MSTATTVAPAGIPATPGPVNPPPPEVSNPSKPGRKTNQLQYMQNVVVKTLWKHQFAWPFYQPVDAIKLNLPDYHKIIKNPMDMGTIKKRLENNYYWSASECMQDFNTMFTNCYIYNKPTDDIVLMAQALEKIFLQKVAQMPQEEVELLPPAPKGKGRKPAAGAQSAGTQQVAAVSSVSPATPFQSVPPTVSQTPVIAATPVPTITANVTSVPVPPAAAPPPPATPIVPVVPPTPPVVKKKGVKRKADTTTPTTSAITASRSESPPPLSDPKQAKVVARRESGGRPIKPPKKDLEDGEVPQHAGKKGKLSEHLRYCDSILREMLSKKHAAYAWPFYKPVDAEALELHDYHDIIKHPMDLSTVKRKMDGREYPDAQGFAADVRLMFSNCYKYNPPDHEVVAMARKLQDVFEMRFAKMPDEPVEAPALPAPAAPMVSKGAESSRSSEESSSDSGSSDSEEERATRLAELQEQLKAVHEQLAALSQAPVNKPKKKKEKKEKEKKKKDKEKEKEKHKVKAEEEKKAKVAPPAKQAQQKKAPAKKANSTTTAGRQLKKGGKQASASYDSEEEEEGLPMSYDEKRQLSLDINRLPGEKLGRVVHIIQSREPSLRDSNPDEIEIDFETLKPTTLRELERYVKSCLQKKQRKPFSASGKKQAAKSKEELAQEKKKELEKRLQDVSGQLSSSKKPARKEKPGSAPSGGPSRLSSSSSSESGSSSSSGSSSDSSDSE

On to `Cc1ncsc1-c1ccc(CNC(=O)[C@@H]2C[C@@H](O)CN2C(=O)[C@@H](NC(=O)COCC(C)(COCCOCCOCCNC(=O)C[C@@H]2N=C(c3ccc(Cl)cc3)c3c(sc(C)c3C)-n3c(C)nnc32)COCCOCCOCCNc2cccc3c2C(=O)N(C2CCC(=O)NC2=O)C3=O)C(C)(C)C)cc1` (stereo partly drawn) [MN666 (1), (2S,4R)-1-((20S)-20-(tert-Butyl)-1-((S)-4-(4-chlorophenyl)-2,3,9-trimethyl-6H-thieno[3,2-f][1,2,4]triazolo[4,3-a][1,4]diazepin-6-yl)-14-((2-(2-(2-((2-(2,6-dioxopiperidin-3-yl)-1,3-dioxoisoindolin-4-yl)amino)ethoxy)ethoxy)ethoxy)methyl)-14-methyl-2,18-dioxo-6,9,12,16-tetraoxa-3,19-diazahenicosan-21-oyl)-4-hydroxy-N-(4-(4-methylthiazol-5-yl)benzyl)pyrrolidine-2-carboxamide], for which the EC50 is 0.72 µM in the assay on RKO WT cells (setting [1]); 0.037 µM at BRD4; 1.58 µM with RKO CRBN/VHL dKO cells (setting [2]); 0.336 µM in the assay on RKO VHL KO cells (setting [2]); 0.703 µM in the assay with RKO CRBN KO cells (setting [2]). The DC50 on BRD2 was 0.084 µM; on BRD3 it was 0.023 µM. The “fold drop in BRD4 degradation potency (Dmax 50) when CRBN recruitment was outcompeted by pomalidomide” value on BRD4 is listed as 5.3 fold.

For the compound `Cc1ncsc1-c1ccc(CNC(=O)[C@@H]2C[C@@H](O)CN2C(=O)[C@@H](NC(=O)COCC(C)(COCCOCCNC(=O)C[C@@H]2N=C(c3ccc(Cl)cc3)c3c(sc(C)c3C)-n3c(C)nnc32)COCCOCCNc2cccc3c2C(=O)N(C2CCC(=O)NC2=O)C3=O)C(C)(C)C)cc1` (stereo partly drawn) [MN675 (2), (2S,4R)-1-((17S)-17-(tert-Butyl)-1-((S)-4-(4-chlorophenyl)-2,3,9-trimethyl-6H-thieno[3,2-f][1,2,4]triazolo[4,3-a][1,4]diazepin-6-yl)-11-((2-(2-((2-(2,6-dioxopiperidin-3-yl)-1,3-dioxoisoindolin-4-yl)amino)ethoxy)ethoxy)methyl)-11-methyl-2,15-dioxo-6,9,13-trioxa-3,16-diazaoctadecan-18-oyl)-4-hydroxy-N-(4-(4-methylthiazol-5-yl)benzyl)pyrrolidine-2-carboxamide], the EC50 was 0.489 µM in the assay on RKO WT cells (setting [1]); 0.445 µM in the assay with RKO WT cells (Homo sapiens, WT RKO, 316 pM to 10 μM, n = 3 (Table S4), read-out: EC50 RKO); 0.055 µM on BRD4; 2.06 µM in the assay with RKO CRBN/VHL dKO cells (setting [2]); 0.87 µM in the assay on RKO VHL KO cells (setting [2]); 0.601 µM in the assay on RKO CRBN KO cells (setting [2]). Besides, the EC50 was determined as 0.327 µM in the assay with K562 cells (Homo sapiens) and 0.175 µM in the assay with KBM7 cells (Homo sapiens, KBM-7). The results for the DC50 at BRD2 and on BRD3 were 0.156 µM and 0.021 µM, respectively. Besides, the “fold drop in BRD4 degradation potency (Dmax 50) when CRBN recruitment was outcompeted by pomalidomide” value at BRD4 worked out at 3.6 fold.

In the case of `Cc1sc2c(c1C)C(c1ccc(Cl)cc1)=N[C@@H](CC(=O)NCCCCCCCCNC(=O)COc1cccc3c1C(=O)N(C1CCC(=O)NC1=O)C3=O)c1nnc(C)n1-2` (some centres unmarked) [dBET6, reference compound], the EC50 in the assay on RKO WT cells (316 pM to 10 μM, 3 days, n = 6 (Figure 3C, Table S1), read-out: EC50 RKO WT) was 0.281 µM; with RKO WT cells (500 pM to 10 μM, 3 days (Figure 10, Table S6), read-out: EC50 RKO WT), 0.256 µM; with RKO WT cells (RKO WT, 316 pM to 10 μM, n = 6, combination: dBET6 and MZ1 each from 5 μM (Table S7), read-out: EC50 RKO) it was 0.106 µM; in the assay with RKO WT cells (WT RKO, 316 pM to 10 μM, n = 3 (Table S4), read-out: EC50 RKO), 0.272 µM; in the assay on RKO CRBN/VHL dKO cells (both VHL and CRBN knocked out (Figure 3C)), greater than 10 µM; in the assay with RKO VHL KO cells (316 pM to 10 μM, 3 days, n = 6 (Figure 3C, Table S1)), 0.233 µM. Also, the EC50 in the assay with RKO VHL KO cells (500 pM to 10 μM, 3 days (Figure 10, Table S6)) is 0.291 µM; with RKO CRBN KO cells (Figure 10 experiment), greater than 10 µM; with K562 cells it was 0.0064 µM; in the assay on KBM7 cells it was 0.0037 µM.
